# In patent publication US20250025482A1, “USE OF C[…] THE TREATMENT OF EPILEPSY” (GW Research Limited, priority 2021, published 2025):
# Experiments:
# Format in all cases: in vivo, human (patients)
# [1] = system: Patients aged 1-2 years old with Tuberous Sclerosis Complex (TSC); assay: Expanded access treatment with highly purified CBD extract, seizure frequency, Patient 3 (Tuberous Sclerosis Complex); parameters: key to Seizure frequency, Focal with impairment / Seizure frequency, Focal without impairment: number of seizures per day; conditions: for Seizure frequency, Focal without impairment / Seizure frequency, Focal with impairment / Seizure frequency, Focal with secondary generalisation: Patient 3, Tuberous Sclerosis; for Seizure frequency, Focal without impairment: baseline 0.0; for Seizure frequency, Focal with impairment: baseline 25.4; for Seizure frequency, Focal with secondary generalisation: baseline 63.0
# Experimental: (§1) Example 1 below describes the use of a highly purified cannabis extract comprising cannabidiol (CBD) in an expanded access treatment program in children with TRE.
# (§2) Patients aged 1-2 years old with Dravet Syndrome (DS), Lennox-Gastaut Syndrome (LGS), or Tuberous Sclerosis Complex (TSC) were administered a highly purified extract of cannabidiol (CBD) obtained from a cannabis plant […].
# (§3) The highly purified CBD extract (greater than 98% CBD w/w) was administered in a formulation described herein at a starting dose of 5 mg/kg/day in addition to their baseline anti-epileptic drug (AED) regimen.
# (§4) The starting dose of the patients was increased from 5 mg/kg/day to 10 mg/kg/day after one week of administering the first dose of CBD.
# (§5) All patients were taking at least two concomitant anti-epileptic drugs. These included clobazam; levetiracetam; topiramate; vigabatrin; phenobarbital; and lacosamide.
# (§6) Prior to treatment with CBD, the number of seizures for each patient at baseline was recorded. During the course of treatment, the number of seizures that each patient experienced per day was recorded. Table 9 provides information on the demographics, seizure type, and concomitant anti-epileptic drugs (AED) for each patient that was administered the highly purified extract of CBD.
# [2] = system: seizures in patients; assay: Onset of effect of seizure reduction during CBD titration; conditions: patients receiving 5 mg/kg/day; e.g., at 2, 3, 4, 5, or 6 days
# [3] = system: Patients aged 1-2 years old with Dravet Syndrome (DS); assay: Expanded access treatment with highly purified CBD extract, seizure frequency, Patient 1 (Dravet Syndrome); parameters: key to Seizure frequency, Clonic / Seizure frequency, Tonic-clonic / Seizure frequency, Focal with impairment: number of seizures per day; conditions: for Seizure frequency, Focal with impairment / Seizure frequency, Tonic-clonic: baseline 3.0; for Seizure frequency, Clonic: baseline 4.0
# Experimental: as §1, §2, §3, §4, §5, §6
# [4] = system: Patients aged 1-2 years old with Lennox-Gastaut Syndrome (LGS); assay: Expanded access treatment with highly purified CBD extract, seizure frequency, Patient 2 (Lennox-Gastaut Syndrome); parameters: key to Seizure frequency, Clonic / Seizure frequency, Tonic / Seizure frequency, Atonic / Seizure frequency, Absence: number of seizures per day; conditions: for Seizure frequency, Tonic: baseline 4.0; for Seizure frequency, Absence: baseline 120.0; for Seizure frequency, Clonic: baseline 200.0; for Seizure frequency, Atonic: baseline 300.0
# Experimental: as §1, §2, §3, §4, §5, §6
# [5] = Patient 3, Tuberous Sclerosis Complex, over the treatment period
# [6] = 2 weeks, dose CBD 10.0 mg/kg/day
# [7] = 4 weeks, dose CBD 20.0 mg/kg/day
# [8] = 8 weeks, dose CBD 15.0 mg/kg/day
# [9] = 16 weeks, dose CBD 15.0 mg/kg/day
# [10] = 24 weeks, dose CBD 13.0 mg/kg/day
# [11] = 36 weeks, dose CBD 13.0 mg/kg/day
# [12] = 48 weeks, dose CBD 13.0 mg/kg/day
# [13] = 60 weeks, dose CBD 11.5 mg/kg/day
# [14] = 84 weeks, dose CBD 27.0 mg/kg/day
# [15] = 96 weeks, dose CBD 22.0 mg/kg/day
# [16] = 108 weeks, dose CBD 13.0 mg/kg/day
# [17] = 120 weeks, dose CBD 29.0 mg/kg/day
# [18] = 144 weeks, dose CBD 35.0 mg/kg/day
# [19] = Patient 1, Dravet Syndrome, 2 weeks, dose CBD 11.7 mg/kg/day
# [20] = Patient 1, Dravet Syndrome, 4 weeks, dose CBD 19.2 mg/kg/day
# [21] = Patient 1, Dravet Syndrome, 8 weeks, dose CBD 24.3 mg/kg/day
# [22] = Patient 1, Dravet Syndrome, 16 weeks, dose CBD 25.4 mg/kg/day
# [23] = Patient 1, Dravet Syndrome, 24 weeks, dose CBD 24.8 mg/kg/day
# [24] = Patient 1, Dravet Syndrome, 36 weeks, dose CBD 23.0 mg/kg/day
# [25] = Patient 1, Dravet Syndrome, 48 weeks, dose CBD 22.6 mg/kg/day
# [26] = Patient 1, Dravet Syndrome, over the treatment period
# [27] = Patient 2, Lennox-Gastaut Syndrome, 4 weeks, dose CBD 25.0 mg/kg/day
# [28] = Patient 2, Lennox-Gastaut Syndrome, 8 weeks, dose CBD 50.0 mg/kg/day
# [29] = Patient 2, Lennox-Gastaut Syndrome, 12 weeks, dose CBD 49.6 mg/kg/day
# [30] = Patient 2, Lennox-Gastaut Syndrome, 24 weeks, dose CBD 49.0 mg/kg/day
# [31] = Patient 2, Lennox-Gastaut Syndrome, 36 weeks, dose CBD 48.6 mg/kg/day
# [32] = Patient 2, Lennox-Gastaut Syndrome, 60 weeks, dose CBD 3.7 mg/kg/day
# [33] = Patient 2, Lennox-Gastaut Syndrome, 72 weeks, dose CBD 50.0 mg/kg/day
# [34] = Patient 2, Lennox-Gastaut Syndrome, over the treatment period
structure (smiles),measurement,setting,value
"C=C(C)[C@@H]1CCC(C)=C[C@H]1c1c(O)cc(CCCCC)cc1O [CBD, Cannabidiol]",relief from focal seizures with impairment after treatment,[1]; Patient 3,complete relief
same,reduction in focal seizures with impairment,[1]; [5],100%
same,reduction in focal seizures with secondary generalisation,[1]; [5],100%
same,"Seizure frequency, Focal without impairment",[1]; [6],0.0
same,"Seizure frequency, Focal with impairment",[1]; [6],20.0
same,"Seizure frequency, Focal with secondary generalisation",[1]; [6],50.0
same,"Seizure frequency, Focal without impairment",[1]; [7],0.0
same,"Seizure frequency, Focal with impairment",[1]; [7],22.0
same,"Seizure frequency, Focal with secondary generalisation",[1]; [7],61.0
same,"Seizure frequency, Focal without impairment",[1]; [8],0.0
same,"Seizure frequency, Focal with impairment",[1]; [8],15.4
same,"Seizure frequency, Focal with secondary generalisation",[1]; [8],109.1
same,"Seizure frequency, Focal without impairment",[1]; [9],0.0
same,"Seizure frequency, Focal with impairment",[1]; [9],0.6
same,"Seizure frequency, Focal with secondary generalisation",[1]; [9],46.2
same,"Seizure frequency, Focal without impairment",[1]; [10],0.0
same,"Seizure frequency, Focal with impairment",[1]; [10],0.0
same,"Seizure frequency, Focal with secondary generalisation",[1]; [10],58.1
same,"Seizure frequency, Focal without impairment",[1]; [11],0.0
same,"Seizure frequency, Focal with impairment",[1]; [11],0.0
same,"Seizure frequency, Focal with secondary generalisation",[1]; [11],0.0
same,"Seizure frequency, Focal without impairment",[1]; [12],0.0
same,"Seizure frequency, Focal with impairment",[1]; [12],0.0
same,"Seizure frequency, Focal with secondary generalisation",[1]; [12],14.8
same,"Seizure frequency, Focal without impairment",[1]; [13],0.0
same,"Seizure frequency, Focal with impairment",[1]; [13],71.3
same,"Seizure frequency, Focal with secondary generalisation",[1]; [13],0.0
same,"Seizure frequency, Focal without impairment",[1]; [14],0.0
same,"Seizure frequency, Focal with impairment",[1]; [14],62.5
same,"Seizure frequency, Focal with secondary generalisation",[1]; [14],0.0
same,"Seizure frequency, Focal without impairment",[1]; [15],0.0
same,"Seizure frequency, Focal with impairment",[1]; [15],14.8
same,"Seizure frequency, Focal with secondary generalisation",[1]; [15],0.0
same,"Seizure frequency, Focal without impairment",[1]; [16],10.8
same,"Seizure frequency, Focal with impairment",[1]; [16],0.3
same,"Seizure frequency, Focal with secondary generalisation",[1]; [16],0.0
same,"Seizure frequency, Focal without impairment",[1]; [17],11.4
same,"Seizure frequency, Focal with impairment",[1]; [17],0.0
same,"Seizure frequency, Focal with secondary generalisation",[1]; [17],0.0
same,"Seizure frequency, Focal without impairment",[1]; [18],9.8
same,"Seizure frequency, Focal with impairment",[1]; [18],0.0
same,"Seizure frequency, Focal with secondary generalisation",[1]; [18],0.0
same,onset of effect of seizure reduction,[2],within one week
same,relief from clonic seizures after treatment,[3]; Patient 1,complete relief
same,relief from focal seizures with impairment after treatment,[3]; Patient 1,complete relief
same,"Seizure frequency, Focal with impairment",[3]; [19],0.0
same,"Seizure frequency, Tonic-clonic",[3]; [19],4.0
same,"Seizure frequency, Clonic",[3]; [19],6.0
same,"Seizure frequency, Focal with impairment",[3]; [20],0.0
same,"Seizure frequency, Tonic-clonic",[3]; [20],2.0
same,"Seizure frequency, Clonic",[3]; [20],4.0
same,"Seizure frequency, Focal with impairment",[3]; [21],0.0
same,"Seizure frequency, Tonic-clonic",[3]; [21],0.0
same,"Seizure frequency, Clonic",[3]; [21],2.0
same,"Seizure frequency, Focal with impairment",[3]; [22],0.0
same,"Seizure frequency, Tonic-clonic",[3]; [22],0.0
same,"Seizure frequency, Clonic",[3]; [22],2.6
same,"Seizure frequency, Focal with impairment",[3]; [23],0.0
same,"Seizure frequency, Tonic-clonic",[3]; [23],1.6
same,"Seizure frequency, Clonic",[3]; [23],0.8
same,"Seizure frequency, Focal with impairment",[3]; [24],0.0
same,"Seizure frequency, Tonic-clonic",[3]; [24],6.9
same,"Seizure frequency, Clonic",[3]; [24],0.0
same,"Seizure frequency, Focal with impairment",[3]; [25],0.0
same,"Seizure frequency, Tonic-clonic",[3]; [25],6.5
same,"Seizure frequency, Clonic",[3]; [25],0.0
same,reduction in clonic seizures,[3]; [26],100%
same,reduction in focal seizures with impairment,[3]; [26],100%
same,relief from clonic seizures after treatment,[4]; Patient 2,complete relief
same,"Seizure frequency, Tonic",[4]; [27],116.0
same,"Seizure frequency, Absence",[4]; [27],116.0
same,"Seizure frequency, Clonic",[4]; [27],64.0
same,"Seizure frequency, Atonic",[4]; [27],388.0
same,"Seizure frequency, Tonic",[4]; [28],48.0
same,"Seizure frequency, Absence",[4]; [28],78.0
same,"Seizure frequency, Clonic",[4]; [28],40.0
same,"Seizure frequency, Atonic",[4]; [28],564.0
same,"Seizure frequency, Tonic",[4]; [29],116.0
same,"Seizure frequency, Absence",[4]; [29],140.0
same,"Seizure frequency, Clonic",[4]; [29],40.0
same,"Seizure frequency, Atonic",[4]; [29],300.0
same,"Seizure frequency, Tonic",[4]; [30],116.0
same,"Seizure frequency, Absence",[4]; [30],140.0
same,"Seizure frequency, Clonic",[4]; [30],40.0
same,"Seizure frequency, Atonic",[4]; [30],280.0
same,"Seizure frequency, Tonic",[4]; [31],116.0
same,"Seizure frequency, Absence",[4]; [31],140.0
same,"Seizure frequency, Clonic",[4]; [31],40.0
same,"Seizure frequency, Atonic",[4]; [31],280.0
same,"Seizure frequency, Tonic",[4]; [32],1.0
same,"Seizure frequency, Absence",[4]; [32],40.0
same,"Seizure frequency, Clonic",[4]; [32],0.0
same,"Seizure frequency, Atonic",[4]; [32],1.0
same,"Seizure frequency, Tonic",[4]; [33],20.0
same,"Seizure frequency, Absence",[4]; [33],0.0
same,"Seizure frequency, Clonic",[4]; [33],0.0
same,"Seizure frequency, Atonic",[4]; [33],0.0
same,reduction in absence seizures,[4]; [34],100%
same,reduction in atonic seizures,[4]; [34],100%
same,reduction in clonic seizures,[4]; [34],100%
